Patent publication US6946277B2, “Method for enhancing cellobiase activity of termitomyces clypeatus using a glycosylation inhibitor” (Council of Scientific and Industrial Research, priority 2001, dated 2005)

Columns and labels:
Termitomyces clypeatus [1] = assay: Cellobiase activity of culture filtrate of Termitomyces clypeatus grown with glycosylation inhibitors (p-nitro phenyl β-D-glucoside substrate); assay type: cell-based; settings: for Maximum cellobiase activity: Termitomyces clypeatus in presence of 2-deoxyglucose
Experimental: (§1) The fungus is maintained in agar slants containing (w/w) glucose 5%, potato extract 10%, malt extract 5%, KH2PO4 0.087%, MgSO4, 7H2O 0.05%. Cultivation of the fungus is carried out between temperatures 20-37° C., preferably at 28-30° C. and at pH between 3-8, preferably at 4-6, under aerobic condition in shake flask in liquid medium on a rotary shaker (200-300 strokes per minute). Among the assimilable carbon sources (cellobiose, mannose, fructose, xylose, arabinose, starch, dextrin, cellulose, cotton, xylan and agrowastes like baggasse powder, rice-straw powder, wheat bran, corn cob powder, corn powder; in presence of TCA cycle acids like succinate, fumarate, maleate or amino acids like aspartate, glutamate, serine, histidine and alanine or glucose analogues like D-glucosamine) D-cellobiose with succinate served as one of the best carbon sources in the concentration range of 0.5-2%(w/v). Among the assimilable nitrogen sources (ammonium chloride, ammonium nitrate, ammonium di hydrogen phosphate, potassium nitrate and organic nitrogen sources such as malt extract, yeast extract, potato extract, soya-peptone and bactopeptone) ammonium di hydrogen phosphate was used. Among the glycosylation inhibitors (Tunicamycin, deoxynojirimycin, 2-deoxy-D-glucose and D-glucono-lactone) 2-deoxy glucose was preferred (Table 1). Detergents used were Tween 20, Tween-80, or Tween-100. Initial pH of the medium may be maintained at 3-7, preferably at 4.5. Inoculum is prepared in the medium in polypropylene conical flask with sterile glass balls (1-1.5 cm in diameter) 3-4 numbers in 250-ml flask. The fine mycelia grown in liquid medium after 2-4 days of growth were added to the fermentation medium at the ratio of 1:10 (v/v). Optimum production of enzyme took place after 3 days of inoculation, between 4-6th days. The culture filtrate is freed from mycelia by any known method of filtration. Cellobiase activity of the culture medium was assayed using p-nitro phenyl β-D-glucoside as substrate. Reference may be made to Khowala. S. And Sengupta. S. (1992) Enzyme and microbial Technology, volume 14, pages144-149. One unit of activity was taken as the amount of enzyme, which could liberate one micromole of p-nitro phenol from p-nitro phenyl β-D-glucoside in the reaction mixture incubated at 50° C. for 30 minutes (Table 1 and 2). Endo-glucanase and cellobiohydrolase activities were measured by dinitrosalicylic acid reagent using carboxy methylcellulose (Sigma chemical co.) and crystalline cellulose (Sigma chemical co.) respectively as substrate (Table 2). Reference may be made to Sumner J. B. and Sumner G. (1949) in Laboratory Experiments in Chemistry, Academic press, New York, page 38. One unit of enzyme was considered as the amount of enzyme that could liberate one micromole of glucose equivalent per minute in buffer at pH 5.0 at 50° C.
[…] The 250 ml conical flask containing 50 ml of medium were autoclaved for 20 minutes at 15 pounds per square inch pressure, where separately autoclaved ammonium di hydrogen orthophosphate at the concentration of 2.4% w/w was added to the medium after sterilization. The medium was cooled and was inoculated at the rate of 10% mycelia (blended) of the fungus developed earlier in flasks with glass marbles. The culture was grown in the medium for 4 days at temperatures 28°-32° C. on a rotary-shaker. The culture filtrate was freed from mycelia and the clear supernatant was used as a source of enzymes. Cellobiase activity was 90 units per ml, endo-glucanase was 4.5 units per ml, and cellobiohydrolase was 3.5 units per ml, respectively. Cellobiase activity in absence of 2-deoxy-D-glucose in the control medium was 1.44 units per ml.
The fungus Termitomyces clypeatus IICB-411 was grown in a medium containing (w/w, %): Cellobiose 1, 2-deoxy-D-glucose 0.5, mannose 0.5, sodium succinate 0.5, KH2PO4 0.087, MgSO4, 7H2O 0.05 at pH 4.5. […]

Trichoderma reesei = settings: cited from earlier work
Termitomyces clypeatus [2] = assay: Endo-glucanase activity of culture filtrate (carboxy methylcellulose, dinitrosalicylic acid reagent); assay type: cell-based; settings: for endo-glucanase: 4 days, pH 4.5
Experimental: as §1
(§2) The fungus Termitomyces clypeatus IICB-411 was grown in a medium containing (w/w, %): Cellobiose 1, 2-deoxy-D-glucose 0.30, sodium succinate 0.5, KH2PO4 0.087, MgSO4, 7H2O 0.05 at pH 4.5. The 250 ml conical flask containing 50 ml of medium were autoclaved for 20 minutes at 15 pounds per square inch pressure, where separately autoclaved ammonium di hydrogen orthophosphate at the concentration of 2.4% w/w was added to the medium after sterilization. The medium was cooled and was inoculated at the rate of 10% mycelia (blended) of the fungus developed earlier in flasks with glass marbles. The culture was grown in the medium for 4 days at temperatures 28°-32° C. on a rotary-shaker. The culture filtrate was freed from mycelia and the clear supernatant was used as a source of enzymes. Cellobiase activity was 90 units per ml, endo-glucanase was 4.5 units per ml, and cellobiohydrolase was 3.5 units per ml, respectively. Cellobiase activity in absence of 2-deoxy-D-glucose in the control medium was 1.44 units per ml. […]

Termitomyces clypeatus [3] = assay: Cellobiohydrolase activity of culture filtrate (crystalline cellulose, dinitrosalicylic acid reagent); assay type: cell-based; settings: for cellobiohydrolase: 4 days, pH 4.5
Experimental: as §1, §2

T. clypeatus = assay: Growth of the fungus T. clypeatus in presence of 2-deoxy-D-glucose; assay type: cell-based, Termitomyces clypeatus; settings: at higher concentrations (above 0.05 to 5% w/v)
From the text: The inventive step is the addition of 2-deoxy-D-glucose in the growth medium in presence of assimilable carbon and nitrogen sources and other nutrients. 2-deoxy-D-glucose is non-fermentable analogue of glucose and mannose, and is known to interfere in formation of wall polysaccharides in yeast [Reference may be made to European Journal of Biochemistry (1975), Volume 54, pages 459-467] and to increase protein secretion in Trichoderma reesei [Reference may be made to Journal of General Microbiology (1989) Volume 135, pages 301-307]; but it acts as a glycosylation inhibitor, increases synthesis and secretion of extracellular proteins in Termitomyces clypeatus, when used in the concentration range of 0.05 to 5%(w/v) and high cellobiase activity is produced in presence of cellobiose, as determined in the applicants laboratory.

Dichomitus squalenes = assay: Cellobiase activity of Dichomitus squalenes in a similar medium; assay type: cell-based; settings: Dichomitus squalenes in presence of 2-deoxyglucose
[4] = Control medium + 2-deoxy-D-glucose 300 μg/ml (Example 2), Table 2
[5] = Control medium + 2-deoxy-D-glucose 1 mg/ml + Mannose 500 μg/ml
[6] = Control medium + 2-deoxyglucose 1 mg/ml (Example 1), Table 2
[7] = Example 1: 2-deoxy-D-glucose 0.30 % w/w
[8] = Example 2: 2-deoxy-D-glucose 0.5 % + mannose 0.5 % w/w
[9] = Example 3: 2-deoxy-D-glucose 1 % w/w

Which Cellobiase activity (Termitomyces clypeatus [1]; Control + 1-deoxynojirimycin 80 μM) does the source give for `OC[C@H]1NC[C@H](O)[C@@H](O)[C@@H]1O` [1-deoxynojirimycin] here?
Its Cellobiase activity is 1.4085 units/ml.

Which “biosynthesis of extracellular as well as intracellular protein” value (Trichoderma reesei; 2-deoxy-D-glucose 0-150 μg/ml) does the source give for `O=CC[C@@H](O)[C@H](O)[C@H](O)CO` [2-deoxy-D-glucose] here?
The value was “inhibited”.

What about the Endo-glucanase activity (Termitomyces clypeatus [2]; [4]) of the same compound?
Its Endo-glucanase activity is 4.637 units/ml.

What about the Endo-glucanase activity (Termitomyces clypeatus [2]; [5]) of the same compound?
Its Endo-glucanase activity is 1.086 units/ml.

What about the Endo-glucanase activity (Termitomyces clypeatus [2]; [6]) of the same compound?
The Endo-glucanase activity was 4.112 units/ml.

And the endo-glucanase (Termitomyces clypeatus [2]; [7])?
Its endo-glucanase is 4.5 units per ml.

And the endo-glucanase (Termitomyces clypeatus [2]; [8])?
The endo-glucanase was 6 units per ml.

And the endo-glucanase (Termitomyces clypeatus [2]; [9])?
The endo-glucanase was 4 units per ml.

And the Cellobiase activity (Termitomyces clypeatus [1]; Control + 2-deoxy-D-glucose 0.05 mg/ml)?
Its Cellobiase activity is 2.236 units/ml.

What about the Cellobiase activity (Termitomyces clypeatus [1]; Control + 2-deoxy-D-glucose 1 mg/ml) of the same compound?
The Cellobiase activity was 50.097 units/ml.

What about the Cellobiase activity (Termitomyces clypeatus [1]; Control + 2-deoxy-D-glucose 5 mg/ml) of the same compound?
Its Cellobiase activity is 0.081 units/ml.

And the Cellobiase activity (Termitomyces clypeatus [1]; [4])?
Its Cellobiase activity is 90.020 units/ml.

What about the Cellobiase activity (Termitomyces clypeatus [1]; [5]) of the same compound?
Its Cellobiase activity is 140.60 units/ml.

And the Cellobiase activity (Termitomyces clypeatus [1]; [6])?
Its Cellobiase activity is 50.097 units/ml.

What about the Cellobiase activity (Termitomyces clypeatus [1]; Example 1: 2-deoxy-D-glucose 0.30 % w/w, 4 days, pH 4.5) of the same compound?
The Cellobiase activity was 90 units per ml.

What about the Cellobiase activity (Termitomyces clypeatus [1]; Example 2: 2-deoxy-D-glucose 0.5 % + mannose 0.5 % w/w, 4 days, pH 4.5) of the same compound?
The Cellobiase activity was 140 units per ml.

What about the Cellobiase activity (Termitomyces clypeatus [1]; Example 3: 2-deoxy-D-glucose 1 % w/w, 4 days, pH 4.5) of the same compound?
Its Cellobiase activity is 50 units per ml.

What about the Maximum cellobiase activity (Termitomyces clypeatus [1]; Example-1) of the same compound?
Its Maximum cellobiase activity is 90.0 U/ml.

And the Maximum cellobiase activity (Termitomyces clypeatus [1]; Example-2)?
The Maximum cellobiase activity was 140.0 U/ml.

What about the Maximum cellobiase activity (Termitomyces clypeatus [1]; Example-3) of the same compound?
Its Maximum cellobiase activity is 50.0 U/ml.

What about the “enhanced production and secretion of enzyme” value (Termitomyces clypeatus [1]; at lower concentrations) of the same compound?
Its value is “the effect is not observed”.

And the Cellobiohydrolase activity (Termitomyces clypeatus [3]; [4])?
Its Cellobiohydrolase activity is 3.600 units/ml.

What about the Cellobiohydrolase activity (Termitomyces clypeatus [3]; [5]) of the same compound?
The Cellobiohydrolase activity was 4.873 units/ml.

And the Cellobiohydrolase activity (Termitomyces clypeatus [3]; [6])?
Its Cellobiohydrolase activity is 3.546 units/ml.

What about the cellobiohydrolase (Termitomyces clypeatus [3]; [7]) of the same compound?
The cellobiohydrolase was 3.5 units per ml.

What about the cellobiohydrolase (Termitomyces clypeatus [3]; [8]) of the same compound?
The cellobiohydrolase was 3.5 units per ml.

And the cellobiohydrolase (Termitomyces clypeatus [3]; [9])?
The cellobiohydrolase was 3.5 units per ml.

And the “growth of the fungus” value (T. clypeatus)?
Its value is “inhibit growth”.

What about the Maximum cellobiase activity (Dichomitus squalenes) of the same compound?
Its Maximum cellobiase activity is 0.05^C U/ml.

For `O=C1O[C@H](CO)[C@@H](O)[C@H](O)[C@H]1O` [glucono-lactone, D-glucono-lactone], which Cellobiase activity (Termitomyces clypeatus [1]; Control + glucono-lactone 2 mg/ml) is on record?
Its Cellobiase activity is 6.1820 units/ml.

With Tunicamycin as the compound, how does the “effect on secretion of proteins” value (Trichoderma reesei; Tunicamycin 0-50 μg/ml) read?
The value was “no effect”.

And the Cellobiase activity (Termitomyces clypeatus [1]; Control + Tunicamycin 10 μg/ml)?
The Cellobiase activity was 1.2075 units/ml.
